According to ChEMBL document CHEMBL1201862, “PubChem BioAssay data set” (2004):
Activity calls are given as the source filed them.

Key:
Aminopeptidase N = molecular target: T1, Aminopeptidase N (Plasmodium falciparum FcB1/Columbia, UniProt O96935); test: P. falciparum M1AAP inhibitors, biochemical, fluorogenic H-Leu-NHMec substrate, 1536-well (AID 1445); parameters: species or system Plasmodium falciparum 3D7, 3D7
T1 sequence (O96935 whole entry): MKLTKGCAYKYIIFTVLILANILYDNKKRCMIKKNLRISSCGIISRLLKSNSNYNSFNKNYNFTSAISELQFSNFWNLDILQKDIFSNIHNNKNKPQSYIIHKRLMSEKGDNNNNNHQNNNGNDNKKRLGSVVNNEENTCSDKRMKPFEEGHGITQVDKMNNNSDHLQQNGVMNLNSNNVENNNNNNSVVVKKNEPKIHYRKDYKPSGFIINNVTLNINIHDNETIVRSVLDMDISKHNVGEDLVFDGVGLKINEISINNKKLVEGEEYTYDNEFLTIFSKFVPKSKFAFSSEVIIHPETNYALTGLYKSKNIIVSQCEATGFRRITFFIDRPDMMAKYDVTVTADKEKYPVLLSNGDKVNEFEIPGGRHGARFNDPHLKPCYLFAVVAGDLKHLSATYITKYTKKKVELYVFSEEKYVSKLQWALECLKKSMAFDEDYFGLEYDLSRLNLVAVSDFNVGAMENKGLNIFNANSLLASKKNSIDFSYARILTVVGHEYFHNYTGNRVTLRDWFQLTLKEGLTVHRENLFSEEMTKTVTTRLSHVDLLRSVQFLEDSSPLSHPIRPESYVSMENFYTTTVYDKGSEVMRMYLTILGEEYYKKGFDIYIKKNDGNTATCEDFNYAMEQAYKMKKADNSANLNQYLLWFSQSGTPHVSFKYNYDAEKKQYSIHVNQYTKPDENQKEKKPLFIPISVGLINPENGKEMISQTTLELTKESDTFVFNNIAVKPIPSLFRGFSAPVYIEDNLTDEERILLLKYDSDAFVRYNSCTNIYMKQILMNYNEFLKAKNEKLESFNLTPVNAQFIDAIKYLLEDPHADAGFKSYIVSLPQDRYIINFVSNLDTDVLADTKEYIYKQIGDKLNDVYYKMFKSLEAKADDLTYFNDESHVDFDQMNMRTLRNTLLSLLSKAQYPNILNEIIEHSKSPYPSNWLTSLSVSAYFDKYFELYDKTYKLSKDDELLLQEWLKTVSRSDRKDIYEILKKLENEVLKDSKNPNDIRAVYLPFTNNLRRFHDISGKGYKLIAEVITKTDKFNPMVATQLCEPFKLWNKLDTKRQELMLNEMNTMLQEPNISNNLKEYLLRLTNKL

[1] = off-target signal loss in HeLa-CEM21 co-culture – HeLa F-luc CTL cells, cherry-picked, counter-screen for HIV-1 Env fusion inhibitor project, dose response (AID 652040); assay type: functional, cell-based;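 note: potency for signal decrease marking cytotoxic or nonspecific inhibition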
[2] = growth suppression of PTEN-null colon cells, dose response, cell-based, HCT116 PTEN knockout (AID 1047); assay type: functional;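 note: HCT116 colon tumor cells with PTEN knocked out; cells exposed to compound for 60 hours before readout; potency for loss of cell viability measured by luminescence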
[3] = growth suppression of beta-catenin-knockout colon cells, dose response, cell-based, HCT116, human colon tumor (AID 1045); assay type: functional;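 note: HCT116 colon tumor cells with beta catenin knocked out; cells exposed to compound for 60 hours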
[4] = THP-1 cell cytotoxicity, dose response, cytotoxicity control for non-replicating M. tuberculosis project (AID 489025); assay type: functional
cells [5] = assay type: functional
[6] = molecular target: Heat shock protein HSP 90-alpha (Homo sapiens, UniProt P07900); assay type: functional, organism-based
cells [7] = assay type: functional, cell-based
cells [8] = assay type: functional, cell-based; remark: listed apart in the source
[9] = microbe, parasite or virus in culture; assay type: functional; conditions: Mycobacterium tuberculosis
Leucine aminopeptidase = molecular target: T2, Leucine aminopeptidase (Plasmodium falciparum 3D7, UniProt Q8IL11); test: P. falciparum M17LAP inhibitors, primary screen, biochemical, fluorogenic H-Leu-NHMec substrate, 1536-well (AID 1619); assay type: functional
T2 sequence (Q8IL11 whole entry): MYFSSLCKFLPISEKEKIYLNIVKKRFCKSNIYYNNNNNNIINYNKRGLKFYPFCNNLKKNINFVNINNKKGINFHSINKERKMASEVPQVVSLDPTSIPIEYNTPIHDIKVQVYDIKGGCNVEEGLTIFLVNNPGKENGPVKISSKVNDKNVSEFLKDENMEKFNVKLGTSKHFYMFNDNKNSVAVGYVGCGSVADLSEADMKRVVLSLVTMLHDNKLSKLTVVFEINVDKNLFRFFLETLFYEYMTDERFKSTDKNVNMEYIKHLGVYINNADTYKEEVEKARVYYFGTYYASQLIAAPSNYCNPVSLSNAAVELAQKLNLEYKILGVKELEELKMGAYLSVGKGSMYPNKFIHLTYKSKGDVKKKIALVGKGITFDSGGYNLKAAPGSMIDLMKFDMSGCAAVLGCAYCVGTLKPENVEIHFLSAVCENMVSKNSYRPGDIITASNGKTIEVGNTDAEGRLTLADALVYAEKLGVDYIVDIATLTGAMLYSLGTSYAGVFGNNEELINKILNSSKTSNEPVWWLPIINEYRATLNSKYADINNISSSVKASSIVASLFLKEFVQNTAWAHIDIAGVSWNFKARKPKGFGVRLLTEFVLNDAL

[10] = test system: Streptococcus sp. 'group A'; test: growth inhibition of control SK(-) GAS strain, dose response, counter-screen for streptokinase expression inhibitor project, luminescence, kanamycin, BacTiterGlo, confirmation (AID 1900); assay type: functional, organism-based
Streptokinase A = molecular target: T3, Streptokinase A (Streptococcus pyogenes serotype M1, UniProt P10520); test: S. pyogenes streptokinase expression inhibitors, potency, dose response, plasminogen activation absorbance, OD405 (AID 1914); assay type: functional, Streptococcus pyogenes M1 GAS;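 note: secreted streptokinase activity via plasminogen activation per viability signal from cell pellet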
T3 sequence (P10520 whole entry): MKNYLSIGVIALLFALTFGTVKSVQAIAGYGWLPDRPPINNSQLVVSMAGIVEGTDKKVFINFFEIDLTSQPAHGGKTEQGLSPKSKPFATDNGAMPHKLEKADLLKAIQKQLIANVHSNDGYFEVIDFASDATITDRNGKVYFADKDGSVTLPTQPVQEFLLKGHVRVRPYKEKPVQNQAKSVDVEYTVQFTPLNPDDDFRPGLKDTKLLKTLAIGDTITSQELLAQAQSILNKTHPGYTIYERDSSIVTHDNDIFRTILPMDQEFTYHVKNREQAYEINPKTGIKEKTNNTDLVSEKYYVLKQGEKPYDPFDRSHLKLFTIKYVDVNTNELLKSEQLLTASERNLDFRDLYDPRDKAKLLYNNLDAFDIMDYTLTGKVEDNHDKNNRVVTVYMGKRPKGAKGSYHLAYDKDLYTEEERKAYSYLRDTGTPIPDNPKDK

Streptococcus = test: Group A Streptococcus viability loss, dose response, counter-screen for streptokinase expression inhibitor project, luminescence, BacTiterGlo (AID 1915); assay type: functional, organism-based;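 note: potency for reduction of bacterial viability or growth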
[11] = inhibitors of HIV Env-driven cell fusion, dose response, cherry-pick (AID 652057); assay type: functional, cell-based
[12] = inhibitors of clade B AD8 Env fusion, dose response, cell-based, cherry-pick (AID 652062); assay type: functional;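 note: luciferase signal from cell-cell fusion driven by HIV-1 clade B AD8 Env; potency is for inhibitors of fusion seen as a drop in luminescence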
INS1 = test: beta cell apoptosis inhibitors, cytokine rescue, dose response, luminescence, retest (AID 449756); assay type: functional, cell-based; conditions: Rattus norvegicus;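 note: cell death triggered by IL-1 beta plus TNF-alpha plus IFN-gamma mixture; protective hits raise ATP signal compared with cytokine alone wells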

**Q.** For `CCOC(=O)CC1C(=O)NCCN1c1nc2c(C)cccn2c(=O)c1/C=C1\SC(=S)N(CC(C)C)C1=O` (configuration not stated), which IC50 (Aminopeptidase N) is on record?
**A.** The IC50 was 42.5 µM (active).

**Q.** For `O=C(Nc1cccc(OC(=O)N2CCOCC2)c1)N1CCOCC1`, which AC50 [1] is on record?
**A.** Its AC50 is > 70 µM (inactive).

**Q.** What does the source list for `CCCOc1ccc(-c2nc(C#N)c(NCCCn3ccnc3)o2)cc1`?
**A.** EC50 [2]: 61.8 µM (active); EC50 [3]: 10.2 µM (active); CC50 [4]: 27.6 µM (active); IC50 (cells [5]): 22.4 µM (active)

**Q.** For `COc1ccc(NC2CCN(C3CC(=O)N(c4ccc(F)c(Cl)c4)C3=O)CC2)cc1` (configuration not stated), which AC50 [6] is on record?
**A.** Its AC50 is 4.11 µM (active).

**Q.** What does the source list for `CCOC(=O)c1c(C)[nH]c(C(=O)OCc2ccccc2F)c1C`?
**A.** EC50 (cells [7]): > 350 µM (not active); EC50 (cells [8]): 93.5 µM (active)

**Q.** Which results are given for `Cn1ncc(Br)c1C(=O)OCC(=O)Nc1nc(-c2ccccc2)cs1`?
**A.** EC50 (cells [7]): > 350 µM (not active); EC50 (cells [8]): 36.4 µM (active)

**Q.** Which EC50 (cells [7]) does the source give for `Cc1ccc(C2(C)NC(=O)N(CC(=O)NC(=O)NC(C)(C)C)C2=O)cc1` (configuration not stated) here?
**A.** The EC50 was > 350 µM (not active).

**Q.** What about the EC50 (cells [8]) of the same compound?
**A.** Its EC50 is > 350 µM (not active).

**Q.** With `CCN(CC)CCNCc1nc2ccccc2c(=O)n1-c1ccc(F)cc1` as the compound, how does the EC50 (cells [7]) read?
**A.** The EC50 was > 350 µM (not active).

**Q.** What about the EC50 (cells [8]) of the same compound?
**A.** Its EC50 is > 350 µM (not active).

**Q.** Which results are given for `Cn1cccc1C(=O)NC(=O)COC(=O)c1cc(S(=O)(=O)N2CCCCC2)ccc1Cl`?
**A.** EC50 (cells [7]): > 350 µM (not active); EC50 (cells [8]): > 350 µM (not active)

**Q.** Which CC50 [4] does the source give for `O=C(Nc1nccs1)c1ccc(COc2ccc(Cl)cc2)o1` here?
**A.** The CC50 was > 40 µM (active).

**Q.** For `CN(CC(=O)Nc1ccccc1Br)C(=O)c1cccnc1Nc1cccc(C(F)(F)F)c1`, which CC50 [9] is on record?
**A.** Its CC50 is 19.9 µM (active).

**Q.** For `N#C[C-](C#N)c1nc2ccccc2nc1-[n+]1cccc(NC(=O)c2ccc(F)cc2)c1`, which EC50 (cells [7]) is on record?
**A.** The EC50 was > 350 µM (not active).

**Q.** And the EC50 (cells [8])?
**A.** The EC50 was > 350 µM (not active).

**Q.** With `Cc1cccc(-c2ncc(CN3CCC(CO)(CCCc4ccccc4)CC3)cn2)c1` as the compound, how does the CC50 [9] read?
**A.** Its CC50 is > 40 µM (active).

**Q.** With `O=c1oc2c(CN3CCOCC3)c(O)c(Cl)cc2c2c1CCC2` as the compound, how does the IC50 (Aminopeptidase N) read?
**A.** The IC50 was 42.9 µM (active).

**Q.** With `CCOC(=O)/C(=C/c1ccc(OC(=O)c2ccccc2)cc1)C(C)=O` as the compound, how does the AC50 [6] read?
**A.** Its AC50 is 2.06 µM (active).

**Q.** Which IC50 (Aminopeptidase N) does the source give for `N#Cc1c(-c2ccccc2)nc(SCC(=O)N(c2ccccc2)c2ccccc2)[nH]c1=O` here?
**A.** Its IC50 is 34.3 µM (active).

**Q.** With `O=C(C[n+]1ccn(CCCNP2(=O)C=C(c3ccccc3)OC(c3ccccc3)=C2)c1)c1cccs1` as the compound, how does the EC50 (cells [7]) read?
**A.** Its EC50 is > 350 µM (not active).

**Q.** And the EC50 (cells [8])?
**A.** The EC50 was > 350 µM (not active).

**Q.** With `CCOC(=O)C1=C(Nc2ccc(C)cc2)S/C(=C\c2ccc(OCC(=O)O)c(OCC)c2)C1=O` as the compound, how does the IC50 (Leucine aminopeptidase) read?
**A.** Its IC50 is 15.6 µM (active).

**Q.** What about the IC50 (Aminopeptidase N) of the same compound?
**A.** Its IC50 is 48.6 µM (active).

**Q.** With `O=c1oc2c(CN3CCOCC3)c(O)c(Cl)cc2c2c1CCCC2` as the compound, how does the IC50 (Aminopeptidase N) read?
**A.** Its IC50 is 32.2 µM (active).

**Q.** Which EC50 [10] does the source give for `Cc1n[nH]c(C)c1CCOc1ccc(C(C)C)cc1` here?
**A.** Its EC50 is 25.1 µM (active).

**Q.** What about the EC50 (Streptokinase A) of the same compound?
**A.** Its EC50 is > 150 µM (not active).

**Q.** And the EC50 (Streptococcus)?
**A.** The EC50 was 43.6 µM (active).

**Q.** What about the CC50 [4] of the same compound?
**A.** The CC50 was > 40 µM (active).

**Q.** And the IC50 (cells [5])?
**A.** The IC50 was 12.2 µM (active).

**Q.** With `C(=NN=C1c2ccccc2-c2ccccc21)c1c[nH]c2ccccc12` as the compound, how does the AC50 [6] read?
**A.** Its AC50 is 5.17 µM (active).

**Q.** For `C[C@H]1CN([C@@H](C)CO)S(=O)(=O)c2ccc(C3=CCCC3)cc2O[C@H]1CN(C)Cc1ccccc1`, which AC50 [11] is on record?
**A.** The AC50 was 18.5 µM (active).

**Q.** What about the AC50 [12] of the same compound?
**A.** The AC50 was 25.1 µM (active).

**Q.** Which EC50 (cells [7]) does the source give for `Cc1cccc(/C=N/NC(=O)c2c(-c3ccccc3)noc2C)c1O` here?
**A.** Its EC50 is 23 µM (active).

**Q.** What about the EC50 (cells [8]) of the same compound?
**A.** The EC50 was > 350 µM (not active).

**Q.** What about the AC50 (INS1) of the same compound?
**A.** Its AC50 is 1.5 µM (active).

**Q.** For `O=C/C(=N\Nc1cccc(C(F)(F)F)c1)C(=O)c1ccccc1`, which AC50 [6] is on record?
**A.** Its AC50 is 6.15 µM (active).
